Data on 5 compounds can be found in patent publication US9730937B2, “RAF kinase modulator compounds and methods of use thereof” (AMBIT BIOSCIENCES CORPORATION, priority 2008, dated 2017).

Structures are written as SMILES. Where two headings read alike, the source gives them in different places.

Assay [1] has as its target RAF kinases (Homo sapiens (Human), UniProt P04049). The conditions noted are these: read-out: RAF1 Kd, class symbols.
Assay [2] deals with mutant BRAF kinase (Homo sapiens (Human), UniProt P15056, V600E). As to conditions: read-out: BRAF V600E Kd, class symbols.
Assay [3] concerns the target T1, wild type BRAF kinase (Homo sapiens (Human), UniProt P15056). The assay can be described thus: biochemical.
The subject of assay [4] is panel of 290 distinct kinases (321 in the larger panel), excluding mutant variants. The conditions noted are these: kinase selectivity score, class symbols.
Assay [5] deals with T1, wild type BRAF kinase. The conditions noted are these: read-out: BRAF WT Kd, class symbols.
Setting [6] is: value marked * (larger kinase panel).

mutant BRAF kinase, sequence (P15056 whole entry V600E): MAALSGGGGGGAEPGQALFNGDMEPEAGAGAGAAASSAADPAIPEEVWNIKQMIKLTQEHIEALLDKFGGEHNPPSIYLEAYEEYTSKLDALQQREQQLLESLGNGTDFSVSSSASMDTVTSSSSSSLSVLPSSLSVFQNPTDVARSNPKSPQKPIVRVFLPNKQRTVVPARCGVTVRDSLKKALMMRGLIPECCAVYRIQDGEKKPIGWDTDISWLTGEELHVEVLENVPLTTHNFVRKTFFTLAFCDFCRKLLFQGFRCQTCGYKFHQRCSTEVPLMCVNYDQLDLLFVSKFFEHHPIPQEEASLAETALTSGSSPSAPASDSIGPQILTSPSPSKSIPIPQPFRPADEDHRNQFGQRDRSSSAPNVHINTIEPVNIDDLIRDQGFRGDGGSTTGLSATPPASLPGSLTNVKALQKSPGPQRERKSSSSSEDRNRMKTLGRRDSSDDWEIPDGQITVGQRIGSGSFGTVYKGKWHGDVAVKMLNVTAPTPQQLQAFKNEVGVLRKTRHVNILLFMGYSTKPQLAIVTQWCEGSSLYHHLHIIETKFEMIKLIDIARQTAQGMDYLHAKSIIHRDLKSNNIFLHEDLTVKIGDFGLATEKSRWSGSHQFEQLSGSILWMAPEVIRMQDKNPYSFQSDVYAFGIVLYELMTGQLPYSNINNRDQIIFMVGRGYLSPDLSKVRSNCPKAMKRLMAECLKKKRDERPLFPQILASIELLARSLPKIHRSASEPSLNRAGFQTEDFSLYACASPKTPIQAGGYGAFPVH
RAF kinases, sequence (P04049 whole entry): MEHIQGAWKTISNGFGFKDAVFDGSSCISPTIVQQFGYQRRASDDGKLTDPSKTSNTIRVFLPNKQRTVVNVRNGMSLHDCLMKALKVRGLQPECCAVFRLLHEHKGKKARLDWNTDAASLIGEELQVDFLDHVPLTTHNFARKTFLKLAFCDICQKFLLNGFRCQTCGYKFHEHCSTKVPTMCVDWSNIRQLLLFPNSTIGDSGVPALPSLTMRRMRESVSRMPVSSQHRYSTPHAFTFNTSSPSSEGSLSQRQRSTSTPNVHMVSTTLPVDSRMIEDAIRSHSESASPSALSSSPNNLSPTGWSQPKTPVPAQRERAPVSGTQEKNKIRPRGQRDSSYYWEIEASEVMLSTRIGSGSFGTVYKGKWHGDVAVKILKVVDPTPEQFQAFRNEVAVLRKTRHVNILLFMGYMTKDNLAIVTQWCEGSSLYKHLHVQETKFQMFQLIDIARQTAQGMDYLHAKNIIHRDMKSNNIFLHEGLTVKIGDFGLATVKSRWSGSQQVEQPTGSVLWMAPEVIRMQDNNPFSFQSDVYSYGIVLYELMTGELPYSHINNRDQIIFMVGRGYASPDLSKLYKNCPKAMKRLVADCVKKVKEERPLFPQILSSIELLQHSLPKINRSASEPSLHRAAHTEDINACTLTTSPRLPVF
T1 sequence (P15056 whole entry): as the sequence (P15056 whole entry V600E) above, with E600V counted along it

Usually Kd stands for the constant that tells how readily two partners part at equilibrium. For `COc1cc2ncnc(Oc3cccc(NC(=O)Nc4cc(C(C)(C)C)on4)c3)c2cc1O[C@H]1CCN(C)C1` [Ex 109, (S)-1-(5-tert-butylisoxazol-3-yl)-3-(3-(7-methoxy-6-(1-methylpyrrolidin-3-yloxy)quinazolin-4-yloxy)phenyl)urea], the values for the dissociation constant (Kd) in assay [1], in assay [2] and in assay [3] were less than 0.25 µM, less than 0.25 µM and 0.25 to 0.5 µM, respectively. Also, in assay [4] (290 distinct kinases), the S35 result is listed as “D (D > 0.40)”.
Turning to `COc1ccc(NC(=O)Nc2cccc(Oc3ncnc4cc(OC)c(OC)cc34)c2)cc1Cl` [Ex 180, 1-(3-chloro-4-methoxyphenyl)-3-(3-(6,7-dimethoxyquinazolin-4-yloxy)phenyl)urea], the Kd in assay [1], in assay [2] and in assay [5] was less than 0.25 µM in each case. Moreover, in assay [4] (setting [6]), the S35 entry is on record as “B* (0.10 < B ≦ 0.20)”.
`COc1cc2ncnc(Oc3cccc(NC(=O)Nc4cccc(C(F)(F)F)c4)c3)c2cc1OC` [Ex 181, 1-(3-(6,7-dimethoxyquinazolin-4-yloxy)phenyl)-3-(3-(trifluoromethyl)phenyl)urea]: the Kd in assay [1], in assay [2] and in assay [5] was less than 0.25 µM in each case. In addition, the S35 entry in assay [4] (setting [6]) is on record as “C* (0.20 < C ≦ 0.40)”.
As for `COc1cc2ncnc(Sc3cccc(NC(=O)Nc4cc(C(F)(F)F)nn4C)c3)c2cc1OC` [Ex 193, 1-[3-(6,7-dimethoxyquinazolin-4-ylthio)phenyl]-3-[1-methyl-3-(trifluoromethyl)-1H-pyrazol-5-yl]urea], the dissociation constant Kd in assay [1], in assay [2] and in assay [5] was less than 0.25 µM each time. Also, the S35 result in assay [4] (setting [6]) is “D* (D > 0.40)”.
For the compound `COc1cc2ncnc(Sc3cccc(NC(=O)Nc4cc(C(C)(CF)CF)nn4-c4ccccc4)c3)c2cc1OC` [Ex 196, 1-[3-(1,3-difluoro-2-methylpropan-2-yl)-1-phenyl-1H-pyrazol-5-yl]-3-[3-(6,7-dimethoxyquinazolin-4-ylthio)phenyl]urea], the Kd in assay [1], in assay [2] and in assay [5] was greater than 1 µM each time. For the same compound, in assay [4] (setting [6]), the S35 entry is listed as “D* (D > 0.40)”.
